From PMC6152052, “Molecular Structure–Affinity Relationship of Flavonoids in Lotus Leaf (Nelumbo nucifera Gaertn.) on Binding to Human Serum Albumin and Bovine Serum Albumin by Spectroscopic Method” (Molecules : A Journal of Synthetic Chemistry and Natural …, 2017)
Read-outs that look alike come from different tables or passages of the source. Each block holds one molecule with its values, some of them ahead of it.

Experiments:
[1] = target: T1, bovine serum albumin (BSA) (Bos taurus, UniProt P02769); test: intrinsic fluorescence quenching, double-log plot; format: binding
T1 construct: gene ALB
T1 sequence (P02769 25-607): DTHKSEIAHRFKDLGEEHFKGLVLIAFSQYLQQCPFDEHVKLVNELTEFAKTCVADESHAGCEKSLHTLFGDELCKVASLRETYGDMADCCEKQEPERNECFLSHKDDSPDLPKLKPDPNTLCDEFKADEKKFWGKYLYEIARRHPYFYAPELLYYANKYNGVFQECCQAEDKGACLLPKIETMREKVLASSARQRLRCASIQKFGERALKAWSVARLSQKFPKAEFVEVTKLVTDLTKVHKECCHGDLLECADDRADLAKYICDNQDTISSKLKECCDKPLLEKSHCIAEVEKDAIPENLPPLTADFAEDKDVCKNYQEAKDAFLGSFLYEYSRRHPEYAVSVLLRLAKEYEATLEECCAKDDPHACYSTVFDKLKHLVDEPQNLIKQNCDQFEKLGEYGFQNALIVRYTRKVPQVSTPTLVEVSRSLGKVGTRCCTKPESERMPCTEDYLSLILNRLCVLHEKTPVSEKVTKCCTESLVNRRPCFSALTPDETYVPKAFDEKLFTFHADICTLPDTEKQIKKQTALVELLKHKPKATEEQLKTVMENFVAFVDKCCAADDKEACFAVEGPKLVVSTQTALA
Source text: intrinsic fluorescence quenching, double-log plot on bovine serum albumin (BSA)

[2] = target: T2, human serum albumin (HSA) (Homo sapiens, UniProt P02768); test: intrinsic fluorescence quenching, double-log plot; format: binding
T2 construct: gene ALB; 585 residues, 66,500 Da, single non-glycosylated chain
T2 sequence (P02768 25-609): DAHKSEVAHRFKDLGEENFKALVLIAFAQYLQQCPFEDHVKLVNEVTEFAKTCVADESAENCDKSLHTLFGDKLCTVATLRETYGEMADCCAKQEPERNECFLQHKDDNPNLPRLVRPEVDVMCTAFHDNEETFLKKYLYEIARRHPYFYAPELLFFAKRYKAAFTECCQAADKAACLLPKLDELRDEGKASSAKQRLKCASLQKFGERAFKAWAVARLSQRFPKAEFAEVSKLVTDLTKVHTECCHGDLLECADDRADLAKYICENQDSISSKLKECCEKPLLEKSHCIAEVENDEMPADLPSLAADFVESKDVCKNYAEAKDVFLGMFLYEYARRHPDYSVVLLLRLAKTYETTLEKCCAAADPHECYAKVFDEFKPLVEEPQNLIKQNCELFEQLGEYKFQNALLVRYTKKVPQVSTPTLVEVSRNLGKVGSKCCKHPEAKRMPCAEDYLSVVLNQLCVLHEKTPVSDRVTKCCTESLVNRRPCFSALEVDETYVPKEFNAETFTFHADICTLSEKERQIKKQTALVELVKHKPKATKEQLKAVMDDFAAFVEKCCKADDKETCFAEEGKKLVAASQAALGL
Source text: intrinsic fluorescence quenching, double-log plot on human serum albumin (HSA)

Structure (SMILES): C[C@@H]1O[C@@H](OC[C@H]2O[C@@H](Oc3c(-c4ccc(O)c(O)c4)oc4cc(O)cc(O)c4c3=O)[C@H](O)[C@@H](O)[C@@H]2O)[C@H](O)[C@H](O)[C@H]1O [compound 2, rutin]
- BSA Affinity / logKa ([1]; PBS pH 7.4, 300.15 K, ex 280 nm, em 341 nm, n = 0.962, double-log): 6.686 log (L/mol)
- HSA Affinity / logKa ([2]; PBS pH 7.4, 300.15 K, ex 280 nm, em 336 nm, n = 0.992, double-log): 5.896 log (L/mol)

Structure (SMILES): O=c1c(O[C@@H]2O[C@H](CO)[C@H](O)[C@H](O)[C@H]2O)c(-c2ccc(O)c(O)c2)oc2cc(O)cc(O)c12 [compound 3, hyperoside]
- BSA Affinity / logKa ([1]; PBS pH 7.4, 300.15 K, ex 280 nm, em 341 nm, n = 0.950, double-log): 6.891 log (L/mol)
- HSA Affinity / logKa ([2]; PBS pH 7.4, 300.15 K, ex 280 nm, em 336 nm, n = 0.960, double-log): 6.802 log (L/mol)

Structure (SMILES): O=C1c2c(O)cc(O)cc2O[C@H](c2ccc(O)c(O)c2)[C@H]1O [compound 5, taxifolin]
- BSA Affinity / logKa [1]: 7.067 log (L/mol)
- HSA Affinity / logKa [2]: 6.748 log (L/mol)

Structure (SMILES): O=c1c(O)c(-c2ccc(O)c(O)c2)oc2cc(O)cc(O)c12 [compound 7, quercetin]
- BSA Affinity / logKa [1]: 7.299 log (L/mol)
- HSA Affinity / logKa [2]: 7.089 log (L/mol)

Structure (SMILES): O=c1cc(-c2ccc(O)cc2)oc2cc(O)cc(O)c12 [compound 8, apigenin]
- BSA Affinity / logKa ([1]; PBS pH 7.4, 300.15 K, ex 280 nm, em 341 nm, n = 0.870, double-log): 7.086 log (L/mol)
- HSA Affinity / logKa ([2]; PBS pH 7.4, 300.15 K, ex 280 nm, em 336 nm, n = 0.962, double-log): 6.655 log (L/mol)

Structure (SMILES): O=C1C[C@@H](c2ccc(O)cc2)Oc2cc(O)cc(O)c21 [compound 9, naringenin]
- BSA Affinity / logKa [1]: 6.982 log (L/mol)
- HSA Affinity / logKa [2]: 6.493 log (L/mol)

Structure (SMILES): O=c1c(O)c(-c2ccc(O)cc2)oc2cc(O)cc(O)c12 [compound 10, kaempferol]
- BSA Affinity / logKa ([1]; PBS pH 7.4, 300.15 K, ex 280 nm, em 341 nm, n = 0.911, double-log): 7.106 log (L/mol)
- HSA Affinity / logKa ([2]; PBS pH 7.4, 300.15 K, ex 280 nm, em 336 nm, n = 0.918, double-log): 6.830 log (L/mol)

Next, values leading:

- BSA Affinity / logKa ([1]; PBS pH 7.4, 300.15 K, ex 280 nm, em 341 nm, n = 0.963, double-log): 6.359 log (L/mol)
- HSA Affinity / logKa ([2]; PBS pH 7.4, 300.15 K, ex 280 nm, em 336 nm, n = 0.994, double-log): 6.234 log (L/mol)
Structure (SMILES): O=c1c(O[C@@H]2O[C@H](CO)[C@@H](O)[C@H](O)[C@H]2O)c(-c2ccc(O)cc2)oc2cc(O)cc(O)c12 [compound 1, astragalin]

- BSA Affinity / logKa ([1]; PBS pH 7.4, 300.15 K, ex 280 nm, em 341 nm, n = 0.938, double-log): 7.095 log (L/mol)
- HSA Affinity / logKa ([2]; PBS pH 7.4, 300.15 K, ex 280 nm, em 336 nm, n = 0.936, double-log): 6.584 log (L/mol)
Structure (SMILES): O=c1c(O[C@@H]2O[C@H](CO)[C@@H](O)[C@H](O)[C@H]2O)c(-c2ccc(O)c(O)c2)oc2cc(O)cc(O)c12 [compound 4, isoquercitrin]

- BSA Affinity / logKa ([1]; PBS pH 7.4, 300.15 K, ex 280 nm, em 341 nm, n = 0.923, double-log): 7.110 log (L/mol)
- HSA Affinity / logKa ([2]; PBS pH 7.4, 300.15 K, ex 280 nm, em 336 nm, n = 0.904, double-log): 7.064 log (L/mol)
Structure (SMILES): O=c1cc(-c2ccc(O)c(O)c2)oc2cc(O)cc(O)c12 [compound 6, luteolin]

- BSA Affinity / logKa ([1]; PBS pH 7.4, 300.15 K, ex 280 nm, em 341 nm, n = 0.941, double-log): 6.828 log (L/mol)
- HSA Affinity / logKa ([2]; PBS pH 7.4, 300.15 K, ex 280 nm, em 336 nm, n = 0.923, double-log): 6.798 log (L/mol)
Structure (SMILES): COc1cc(-c2oc3cc(O)cc(O)c3c(=O)c2O)ccc1O [compound 11, isorhamnetin]
